Activity calls are given as the source filed them. The rule behind the calls is not given here.

One may read the IC50 as the concentration at which inhibition is half-maximal. As usually defined, the EC50 is the concentration needed to bring the measured effect to its halfway point. By Cmax is commonly meant the highest concentration seen after dosing. A word on the Tmax: it is the time at which the peak concentration occurs. As usually defined, the AUC is concentration integrated over time. A low value points to low exposure. By Kp is commonly meant the ratio of the level in a tissue or fluid to that in plasma or blood.

Data set [1] has as its target T1, Protein kinase C zeta type (Homo sapiens, UniProt Q05513).
T1 sequence (Q05513 whole entry): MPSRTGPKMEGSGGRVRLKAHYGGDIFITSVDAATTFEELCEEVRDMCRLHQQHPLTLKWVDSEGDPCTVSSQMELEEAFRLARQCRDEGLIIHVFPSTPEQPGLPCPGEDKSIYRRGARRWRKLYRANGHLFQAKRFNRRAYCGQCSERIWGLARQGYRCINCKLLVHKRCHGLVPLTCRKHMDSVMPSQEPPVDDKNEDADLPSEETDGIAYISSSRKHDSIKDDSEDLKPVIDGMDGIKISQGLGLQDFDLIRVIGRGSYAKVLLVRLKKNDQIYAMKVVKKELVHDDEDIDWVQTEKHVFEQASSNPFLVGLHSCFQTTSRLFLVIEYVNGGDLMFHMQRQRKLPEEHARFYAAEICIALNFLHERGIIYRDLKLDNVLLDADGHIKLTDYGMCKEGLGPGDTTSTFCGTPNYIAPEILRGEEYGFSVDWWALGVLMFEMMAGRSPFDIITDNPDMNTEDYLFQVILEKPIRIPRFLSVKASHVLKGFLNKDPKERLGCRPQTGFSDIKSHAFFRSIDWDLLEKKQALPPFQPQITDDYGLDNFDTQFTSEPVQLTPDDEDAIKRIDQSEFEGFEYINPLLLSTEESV
The data set can be described thus: Inhibition of recombinant full-length human aPKCzeta expressed in Sf21 insect cells using 5FAM-ERMRPRKRQGSVRRRV-NH2 as substrate in presence of ATP after 60 mins by IMAP fluorescence polarization analysis. In general terms: Fluorescence polarisation rises when a labelled molecule tumbles more slowly, as on binding a larger partner.

Data set [2] has as its target T1, Protein kinase C zeta type. The data set can be described thus: Inhibition of recombinant full-length human aPKCzeta using CREBtide as substrate incubated for 3 hrs in presence of ATP by Kinase Glo luminescent assay. Background: Kinase-Glo measures the ATP left after a reaction by luminescence.
Data set [3] can be described thus: Inhibition of VEGF-induced permeability in BREC cells incubated for 2 hrs. It counts as functional, cell-based, Bos taurus.
The species named for data set [4] is Bos taurus. The data set can be described thus: Inhibition of VEGF-induced permeability in BREC cells at 1 uM incubated for 2 hrs. In kind it is functional, cell-based.
Data set [5] is filed under the species Bos taurus. Nature of the data set: Inhibition of VEGF-induced permeability in BREC cells at 3 uM incubated for 2 hrs. It counts as functional, cell-based.
The species entered for data set [6] is Bos taurus. Nature of the data set: Inhibition of VEGF-induced permeability in BREC cells at 0.01 uM incubated for 2 hrs. In kind it is functional, cell-based.
Data set [7] in a line: Cytotoxicity against […] BREC cells at 0.03 to 1 uM. In kind it is cell-based.
Data set [8] deals with T2, Protein kinase C iota type (Homo sapiens, UniProt P41743).
T2 sequence (P41743 whole entry): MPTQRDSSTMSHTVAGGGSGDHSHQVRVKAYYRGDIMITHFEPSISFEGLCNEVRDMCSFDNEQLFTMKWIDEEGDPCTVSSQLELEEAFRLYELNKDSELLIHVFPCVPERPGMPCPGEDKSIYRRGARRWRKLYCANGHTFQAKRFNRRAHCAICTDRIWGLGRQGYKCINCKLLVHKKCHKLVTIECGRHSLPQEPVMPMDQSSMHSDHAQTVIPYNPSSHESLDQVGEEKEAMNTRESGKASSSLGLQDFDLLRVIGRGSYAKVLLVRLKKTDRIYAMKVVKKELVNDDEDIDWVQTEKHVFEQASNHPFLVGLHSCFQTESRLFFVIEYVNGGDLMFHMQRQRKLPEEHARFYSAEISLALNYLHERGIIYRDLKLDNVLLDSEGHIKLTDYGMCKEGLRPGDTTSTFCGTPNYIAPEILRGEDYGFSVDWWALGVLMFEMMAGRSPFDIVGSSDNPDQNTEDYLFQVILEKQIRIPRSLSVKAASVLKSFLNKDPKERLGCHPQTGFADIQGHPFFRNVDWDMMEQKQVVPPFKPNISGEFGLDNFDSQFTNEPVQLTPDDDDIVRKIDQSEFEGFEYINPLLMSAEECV
Nature of the data set: Inhibition of recombinant full-length human aPKCiota using CREBtide as substrate incubated for 3 hrs in presence of ATP by kinase Glo luminescent assay.

Data set [9] deals with T1, Protein kinase C zeta type. Nature of the data set: Inhibition of recombinant full-length human aPKCzeta in presence of ATP at Km concentration by radiometric assay.
Data set [10] concerns the target T2, Protein kinase C iota type. Nature of the data set: Inhibition of recombinant full-length human aPKCiota in presence of ATP at Km concentration by radiometric assay.
For data set [11], the species on record is Bos taurus. Nature of the data set: Inhibition of VEGF-induced permeability in BREC cells at 0.01 to 1.0 uM incubated for 2 hrs. It counts as functional, cell-based.
For data set [12], the target named is Protein kinase C beta type (Homo sapiens) (UniProt P05771). The data set can be described thus: Inhibition of PKCbeta1 (unknown origin) at 5 uM by radiometric kinase assay.
Protein kinase C beta type (Homo sapiens), sequence (P05771 2-671 limits assumed): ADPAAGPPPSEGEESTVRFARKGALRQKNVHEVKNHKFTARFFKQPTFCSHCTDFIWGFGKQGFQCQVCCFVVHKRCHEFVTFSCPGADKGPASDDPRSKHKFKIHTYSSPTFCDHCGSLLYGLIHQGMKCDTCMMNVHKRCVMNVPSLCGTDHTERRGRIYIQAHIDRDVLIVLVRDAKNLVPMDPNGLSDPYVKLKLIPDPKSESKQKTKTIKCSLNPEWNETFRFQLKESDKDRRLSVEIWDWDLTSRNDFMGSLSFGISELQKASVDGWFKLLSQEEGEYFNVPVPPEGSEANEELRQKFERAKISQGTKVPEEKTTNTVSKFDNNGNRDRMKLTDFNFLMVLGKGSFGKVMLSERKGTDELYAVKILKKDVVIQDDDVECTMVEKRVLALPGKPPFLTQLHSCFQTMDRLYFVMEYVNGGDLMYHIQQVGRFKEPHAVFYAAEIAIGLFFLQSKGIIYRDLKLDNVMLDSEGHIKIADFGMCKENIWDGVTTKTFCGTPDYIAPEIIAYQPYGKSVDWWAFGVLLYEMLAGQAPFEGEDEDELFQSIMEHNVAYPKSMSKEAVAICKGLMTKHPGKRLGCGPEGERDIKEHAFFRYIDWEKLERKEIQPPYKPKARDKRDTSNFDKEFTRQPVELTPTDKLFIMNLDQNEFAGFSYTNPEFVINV
The species named for data set [13] is Homo sapiens. Nature of the data set: Inhibition of PKA (unknown origin) at 5 uM by radiometric kinase assay.
The target in data set [14] is Rho-associated protein kinase 2 (Homo sapiens) (UniProt O75116). The data set can be described thus: Inhibition of ROCK2 (unknown origin) at 5 uM by radiometric kinase assay.
Rho-associated protein kinase 2 (Homo sapiens), sequence (O75116 whole entry, looked up): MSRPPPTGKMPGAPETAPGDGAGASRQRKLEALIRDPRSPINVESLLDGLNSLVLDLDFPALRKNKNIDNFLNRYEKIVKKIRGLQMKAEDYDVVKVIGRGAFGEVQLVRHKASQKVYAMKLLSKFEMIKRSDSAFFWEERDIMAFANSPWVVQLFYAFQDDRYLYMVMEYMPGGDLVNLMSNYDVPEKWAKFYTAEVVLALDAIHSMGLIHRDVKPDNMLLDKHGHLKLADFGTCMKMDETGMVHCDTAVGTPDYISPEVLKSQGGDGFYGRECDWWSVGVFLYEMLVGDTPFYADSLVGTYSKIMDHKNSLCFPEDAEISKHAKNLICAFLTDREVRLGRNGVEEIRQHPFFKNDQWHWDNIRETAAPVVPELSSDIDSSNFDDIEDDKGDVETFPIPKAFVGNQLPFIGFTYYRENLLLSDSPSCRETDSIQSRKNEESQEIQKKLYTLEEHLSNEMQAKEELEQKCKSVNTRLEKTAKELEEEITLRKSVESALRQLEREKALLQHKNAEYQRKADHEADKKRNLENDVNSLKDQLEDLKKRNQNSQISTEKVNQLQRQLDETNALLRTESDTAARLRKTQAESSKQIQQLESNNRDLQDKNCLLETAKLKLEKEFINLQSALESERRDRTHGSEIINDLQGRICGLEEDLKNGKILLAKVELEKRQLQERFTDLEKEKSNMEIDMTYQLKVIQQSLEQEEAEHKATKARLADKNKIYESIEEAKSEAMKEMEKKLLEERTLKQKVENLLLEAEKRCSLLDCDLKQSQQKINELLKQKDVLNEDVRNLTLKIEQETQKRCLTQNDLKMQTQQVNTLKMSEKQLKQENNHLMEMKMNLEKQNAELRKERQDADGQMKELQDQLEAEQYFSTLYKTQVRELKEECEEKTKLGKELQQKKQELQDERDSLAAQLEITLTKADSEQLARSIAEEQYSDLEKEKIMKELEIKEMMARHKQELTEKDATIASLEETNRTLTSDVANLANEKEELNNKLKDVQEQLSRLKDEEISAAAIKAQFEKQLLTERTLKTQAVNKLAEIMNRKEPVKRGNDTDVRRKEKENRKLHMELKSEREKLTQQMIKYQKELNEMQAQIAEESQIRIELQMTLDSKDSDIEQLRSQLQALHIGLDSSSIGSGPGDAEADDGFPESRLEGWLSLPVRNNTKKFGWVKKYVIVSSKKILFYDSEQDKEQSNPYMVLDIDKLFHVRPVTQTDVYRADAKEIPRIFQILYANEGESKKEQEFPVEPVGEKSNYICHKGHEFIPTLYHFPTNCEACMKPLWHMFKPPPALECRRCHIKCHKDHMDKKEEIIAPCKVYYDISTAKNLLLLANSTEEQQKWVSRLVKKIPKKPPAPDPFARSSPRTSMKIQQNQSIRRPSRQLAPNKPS
A short description of data set [15]: Inhibition of PKA (unknown origin) by radiometric kinase assay. More on the design: species or system Homo sapiens.
The species entered for data set [16] is Bos taurus. The data set can be described thus: Inhibition of VEGF-induced permeability in BREC cells in presence of Y-27632. It counts as functional, cell-based.
The subject of data set [17] is HEK293. The data set can be described thus: Inhibition of TNFalpha-induced NFkappaB activation in HEK293 cells at 2.5 to 10 uM preincubated for 2 hrs followed by TNFalpha stimulation by luciferase assay. It counts as cell-based. The conditions noted are these: Homo sapiens.
A short description of data set [18]: Inhibition of TNFalpha-induced NFkappaB activation in HEK293 cells preincubated for 2 hrs followed by TNFalpha stimulation by luciferase assay. It counts as cell-based. The conditions noted are these: Homo sapiens.
Data set [19] concerns HEK293. Nature of the data set: Cytotoxicity against HEK293 cells assessed as effect on cell survival by WST-1 assay. The conditions noted are these: human. In kind it is cell-based. Background: Tetrazolium assays rely on reduction of a dye to a coloured formazan, in cell work by metabolically active cells.
Data set [20] has as its system Rattus norvegicus. Nature of the data set: Inhibition of VEGF/TNFalpha-induced retinal vascular permeability in Long-Evans rat at 1 or 3 uM administered intravitreally followed by FITC-BSA, iv injection 3 hrs post drug dose and measured after 2 hrs by spectrophotometric method. It counts as functional, organism-based.
Data set [21] relates to Rattus norvegicus. Nature of the data set: Inhibition of VEGF/TNFalpha-induced retinal vascular permeability in Long-Evans rat at 3 uM administered intravitreally followed by FITC-BSA, iv injection 3 hrs post drug dose and measured after 2 hrs by spectrophotometric method relative to control. It counts as functional.
Data set [22] concerns Rattus norvegicus. Nature of the data set: Effect on retinal function in overnight dark-adapted Long-Evans rat assessed as A-wave or B-wave amplitude at 3 uM administered intravitreally 3 to 5 hrs prior to exposure to a 0.1 cd.s/m2 to 10 cd.s/m2 test flash by electroretinography. It counts as ADME, organism-based. The conditions noted are these: in vivo, topical_or_ocular.

Data set [23] can be described thus: Microsomal stability in CD1 mouse liver microsomes assessed as half life at 1 uM in presence of beta-NADPH measured upto 60 mins by LC-MS/MS analysis. In kind it is ADME, Microsome. The conditions noted are these: 1 h.
Data set [24] in a line: Cmax in CD1 mouse plasma at 20 mg/kg, po measured up to 24 hrs. It counts as ADME, organism-based. More on the design: dose 20 mg/kg, route oral. The note with it: in vivo.
Data set [25] can be described thus: Tmax in CD1 mouse plasma at 20 mg/kg, po measured up to 24 hrs. In kind it is ADME, organism-based. The note with it: in vivo.
A short description of data set [26]: AUC in CD1 mouse plasma at 10 mg/kg, iv measured up to 24 hrs. The note with it: in vivo. Further details: dose 10 mg/kg, time < 24 hr, route intravenous. It counts as ADME, organism-based.
Data set [27] in a line: AUC in CD1 mouse plasma at 20 mg/kg, po measured up to 24 hrs. In kind it is ADME, organism-based. More on the design: time < 24 hr, dose 20 mg/kg, route oral. The conditions noted are these: in vivo.
A short description of data set [28]: Terminal elimination half life in CD1 mouse plasma at 10 mg/kg, iv measured up to 24 hrs. In kind it is ADME, organism-based. The conditions noted are these: in vivo.
The nature of data set [29]: Terminal elimination half life in CD1 mouse plasma at 20 mg/kg, po and measured up to 24 hrs. In kind it is ADME, organism-based. The note with it: in vivo.
Data set [30] in a line: Oral bioavailability in CD1 mouse plasma at 20 mg/kg measured up to 24 hrs. In kind it is ADME, organism-based. The conditions noted are these: in vivo.
Data set [31] in a line: Ratio of drug level in CD-1 mouse brain to plasma at 10 mg/kg, iv after 4 hrs by LCMS analysis. It counts as ADME, organism-based.
Data set [32] can be described thus: Ratio of drug level in CD-1 mouse eye to plasma at 10 mg/kg, iv after 4 hrs by LCMS analysis. It counts as ADME, organism-based.
Data set [33] can be described thus: Ratio of drug level in CD-1 mouse eye to brain at 10 mg/kg, iv after 4 hrs by LCMS analysis. It counts as ADME, organism-based. The conditions noted are these: in vivo.
Data set [34] can be described thus: Ratio of drug level in CD-1 mouse eye to brain at 20 mg/kg, po after 4 hrs by LCMS analysis. In kind it is ADME, organism-based. The conditions noted are these: in vivo.
The species named for data set [35] is Homo sapiens. The data set can be described thus: Selectivity ratio of IC50 for inhibition of recombinant full-length human aPKCzeta using CREBtide as substrate to IC50 for of recombinant full-length human aPKCiota using CREBtide as substrate.
Data set [36] in a line: Drug level in iv dosed CD-1 mouse eye after 24 hrs by LCMS analysis. The conditions noted are these: read-out: Drug uptake. In kind it is ADME, organism-based.

On to `CN1CCN(c2nc(-c3ccncc3)nc3sc4c(c23)CCCC4)CC1`, for which the IC50 in data set [1] was 3700 nM.

In the case of `c1cc(-c2cc(N3CCNCC3)c3c4c(sc3n2)CCCC4)ccn1`, in data set [2], the IC50 came to 1150 nM. In addition, the concentration for a half-maximal effect (EC50) entry in data set [3] is given as “Not Active”. Besides, the inhibition entry in [4] is “inactive”.

For `NC1CCN(c2nc(-c3ccncc3)nc3sc4c(c23)CCCC4)CC1`, in [3] (read-out: EC50), the EC50 amounted to 300 nM.

On to `c1cc(-c2nc(NCCN3CCNCC3)c3c4c(sc3n2)CCCC4)ccn1`, for which the IC50 in [2] was determined as 11100 nM.

Turning to `CN(C)C1CCN(c2nc(-c3ccncc3)nc3sc4c(c23)CCCC4)CC1`, in data set [3] (read-out: EC50), the EC50 amounted to 300 nM.

As to `NCCN1CCN(c2nc(-c3ccncc3)nc3sc4c(c23)CCCC4)CC1`, in data set [2], the IC50 was 420 nM.

`OC1CCN(c2nc(-c3ccncc3)nc3sc4c(c23)CCCC4)CC1`: in [2], the IC50 stood at 2400 nM. Also, the EC50 result in [3] was “Not Active”. Further, the inhibition entry in data set [5] was “inactive”.

For `c1cc(-c2nc(N3CCNCC3)c3c4c(sc3n2)CCCC4)ccn1`, in data set [3], the EC50 entry is reported as “Not Active”. For the same compound, the inhibition result in data set [6] and in data set [4] was “inactive” each time. For the same compound, in data set [7], the Activity result is listed as “Toxic”.

With `NCC1CCN(c2nc(-c3ccncc3)nc3sc4c(c23)CCCC4)CC1`, the IC50 in [2] amounted to 520 nM; in data set [8] it was 70 nM; in [9], 1640 nM; in data set [10], 4080 nM; in data set [15], 500 nM. Further, the results for the EC50 in data set [3] (read-out: EC50) and in data set [18] were 71 nM and 6650 nM, respectively. The inhibition entry in data set [11], in [12], in data set [13], in data set [14], in data set [16] and in [17] was “Active” in each case. In addition, in [20], the inhibition entry is “Active”. The Activity entry in [19] and in data set [22] was “Non-Toxic” in each case. The “inhibition (INH)” value in data set [21] is listed as 100%. Besides, the t1/2 in data set [23] was over 1 h. The Cmax in data set [24] worked out at 488 ng/mL. For the same compound, the Tmax in data set [25] came out at 7 h. Moreover, the AUC in data set [26] amounted to 4373 ng·h/mL; in [27] it was 6762 ng·h/mL. The “beta t1/2” value came to 2.77 h in data set [28] and 7.83 h in data set [29]. Besides, the F in [30] turned out to be 81.7%. In addition, the Ratio is given as 2.3 in [31], 1.3 in data set [33] and 2 in data set [34]. Moreover, the Kp at 4 h in data set [32] was 2.9. Besides, the Ratio IC50 in data set [35] came to 7.5. Moreover, the concentration at 24 h in data set [36] was determined as 375 ng/g.

The values are drawn from ChEMBL document CHEMBL4622847, “Synthesis and structure-activity relationships of thieno[2,3-d]pyrimidines as atypical protein kinase C inhibitors to control retinal vascular permeability and cytokine-induced edema” (Bioorg Med Chem, 2020).
